According to patent publication US4952577A, “Methoxymethyl penem compounds” (Farmitalia Carlo Erba S.r.l., priority 1987, dated 1990):
In brackets after ≈: the same amount, converted by molar mass. Where two headings read alike, the source gives them in different places.

Experiments:
[1] = Pharmacokinetic parameters of prodrug esters; format: in vivo; details: mouse; last line of Table 4
bacterial β-lactamases = assay: Stability towards bacterial β-lactamases; format: in vitro ADME; details: compared with the prior-described mixture
renal dehydropeptidases = assay: Stability towards renal dehydropeptidases; format: in vitro ADME; details: compared with the prior-described mixture
[2] = Chemical stability over the whole pH-range; format: physicochemical; details: compared with the prior-described mixture
Escherichia coli G = assay: Therapeutic efficacy against experimental infections in the mouse; format: in vivo; details: therapy 0.5-1.5-6 hours after infection, read-out: ED50 (cumulative dose)
[3] = test system: Staphylococcus aureus Smith; assay: In vitro antibacterial activity (MIC); format: cell-based
S. aureus 39/2 Pen^+ = assay: In vitro antibacterial activity (MIC); format: cell-based; details: Staphylococcus aureus
S. aureus 2 MR = assay: In vitro antibacterial activity (MIC); format: cell-based; details: Staphylococcus aureus
S. aureus 2101 MR = assay: In vitro antibacterial activity (MIC); format: cell-based; details: Staphylococcus aureus
S. aureus 5635 MR = assay: In vitro antibacterial activity (MIC); format: cell-based; details: Staphylococcus aureus
[4] = test system: S. epidermidis ATCC 12228; assay: In vitro antibacterial activity (MIC); format: cell-based; details: Staphylococcus epidermidis, ATCC12228
[5] = test system: Streptococcus pyogenes ATCC 12384; assay: In vitro antibacterial activity (MIC); format: cell-based; details: ATCC12384
S. salivarius ATCC 9758 = assay: In vitro antibacterial activity (MIC); format: cell-based; details: Streptococcus salivarius, ATCC9758
S. faecalis ATCC 6057 = assay: In vitro antibacterial activity (MIC); format: cell-based; details: Enterococcus faecalis, ATCC6057
S. faecalis 55 = assay: In vitro antibacterial activity (MIC); format: cell-based; details: Enterococcus faecalis
S. faecium ATCC 8043 = assay: In vitro antibacterial activity (MIC); format: cell-based; details: Enterococcus faecium, ATCC8043
Escherichia coli K 12 = assay: In vitro antibacterial activity (MIC); format: cell-based; details: K12
E. coli R997 (HSM-1) = assay: In vitro antibacterial activity (MIC); format: cell-based; details: Escherichia coli
E. coli B cef. R = assay: In vitro antibacterial activity (MIC); format: cell-based; details: Escherichia coli
[6] = test system: Salmonella typhi ATCC 14028; assay: In vitro antibacterial activity (MIC); format: cell-based; details: Salmonella enterica, read-out: In vitro MIC
[7] = test system: Shigella flexneri ATCC 11836; assay: In vitro antibacterial activity (MIC); format: cell-based; details: ATCC11836
[8] = test system: Klebsiella aerogenes 1522E; assay: In vitro antibacterial activity (MIC); format: cell-based
[9] = test system: K. Aerogenes 1082 E cef. R; assay: In vitro antibacterial activity (MIC); format: cell-based; details: Klebsiella aerogenes
[10] = test system: Enterobacter cloacae 1321E; assay: In vitro antibacterial activity (MIC); format: cell-based
E. cloacae P99 cef. R. = assay: In vitro antibacterial activity (MIC); format: cell-based; details: Enterobacter cloacae, P99CEF.R.
E. aerogenes F46 = assay: In vitro antibacterial activity (MIC); format: cell-based; details: Klebsiella aerogenes
E. aerogenes 225 = assay: In vitro antibacterial activity (MIC); format: cell-based; details: Klebsiella aerogenes
[11] = test system: Cirobacter freundii ATCC 8090; assay: In vitro antibacterial activity (MIC); format: cell-based
C. freundii 4051 cef. R = assay: In vitro antibacterial activity (MIC); format: cell-based; details: Citrobacter freundii
[12] = test system: Serratia marcescens ATCC 2902; assay: In vitro antibacterial activity (MIC); format: cell-based; details: ATCC2902
[13] = test system: Acinetobacter calcoaceticus Bg 3; assay: In vitro antibacterial activity (MIC); format: cell-based; details: BG3
A. calcolaceticus N 409 = assay: In vitro antibacterial activity (MIC); format: cell-based
[14] = test system: Proteus mirabilis FI 7474; assay: In vitro antibacterial activity (MIC); format: cell-based; details: FI7474
P. rettgeri ATCC 925 = assay: In vitro antibacterial activity (MIC); format: cell-based; details: Providencia rettgeri, ATCC925
P. morganii ATCC 25830 = assay: In vitro antibacterial activity (MIC); format: cell-based; details: Morganella morganii, ATCC25830
P. vulgaris 51 = assay: In vitro antibacterial activity (MIC); format: cell-based; details: Proteus vulgaris
[15] = test system: Providencia stuartii Bs 60; assay: In vitro antibacterial activity (MIC); format: cell-based; details: BS60
[16] = test system: Pseudomonas aeruginosa 2598; assay: In vitro antibacterial activity (MIC); format: cell-based
P. aeruginosa ATCC 19660 = assay: In vitro antibacterial activity (MIC); format: cell-based; details: Pseudomonas aeruginosa, ATCC19660
[17] = test system: Staphylococcus aureus Smith; assay: Therapeutic efficacy against experimental infections in the mouse; format: in vivo; details: sc, subcutaneous administration, therapy 2 hours after infection, read-out: ED50 (cumulative dose)
[18] = test system: gram-positive and gram-negative bacteria; assay: Control and treatment of experimental infections in the mouse; format: in vivo

CC(=O)OCOC(=O)C1=C(COC(N)=O)S[C@@H]2[C@@H]([C@@H](C)O)C(=O)N12 [FCE 22891, reference compound]
[drawing 32] (parameter name shown only as drawing) [1]: 6

COCC1=C(C(=O)O)N2C(=O)[C@H]([C@@H](C)O)[C@H]2S1 [compound of formula (I), (5R,6S, 1'R)-configured 6-(1-hydroxyethyl)-2-methoxymethyl-penem-3-carboxylic acid]
stability towards bacterial β-lactamases (bacterial β-lactamases): superior stability | stability towards renal dehydropeptidases (renal dehydropeptidases): superior stability | chemical stability [2]: considerably improved chemical stability

COCC1=C(C(=O)OCOC(C)=O)N2C(=O)[C@H]([C@@H](C)O)[C@H]2S1 [Compound 1, Acetoxymethyl (5R,6S)-6-[l(R)-Hydroxyethyl]-2-Methoxymethyl-Penem-3-Carboxylate]
[drawing 32] (parameter name shown only as drawing) [1]: 7

COCC1=C(C(=O)OCc2oc(=O)oc2C)N2C(=O)[C@H]([C@@H](C)O)[C@H]2S1 [Compound 20, (5-Methyl-2-Oxo-1,3-Dioxolen-4-yl)Methyl (5R,6S)-6-[1(R)-Hydroxyethyl]-2-Methoxymethyl-Penem-3-Carboxylate]
ED50 (Escherichia coli G; oral administration): 13.1 mg/kg | [drawing 32] (parameter name shown only as drawing) [1]: 7

COCC1=C(C(=O)O)N2C(=O)[C@H]([C@@H](C)O)[C@H]2S1 [5R,6S,1'R isomer]
MIC [3]: 0.09 µg/mL (≈ 0.347 µM) | MIC (S. aureus 39/2 Pen^+): 0.09 µg/mL (≈ 0.347 µM) | MIC (S. aureus 2 MR): 3.12 µg/mL (≈ 12 µM) | MIC (S. aureus 2101 MR): 3.12 µg/mL (≈ 12 µM) | MIC (S. aureus 5635 MR): 0.19 µg/mL (≈ 0.733 µM) | MIC [4]: 0.09 µg/mL (≈ 0.347 µM) | MIC [5]: 0.022 µg/mL (≈ 0.0848 µM) | MIC (S. salivarius ATCC 9758): 0.022 µg/mL (≈ 0.0848 µM) | MIC (S. faecalis ATCC 6057): 1.56 µg/mL (≈ 6.02 µM) | MIC (S. faecalis 55): 3.12 µg/mL (≈ 12 µM) | MIC (S. faecium ATCC 8043): 3.12 µg/mL (≈ 12 µM) | MIC (Escherichia coli K 12): 0.39 µg/mL (≈ 1.5 µM) | MIC (E. coli R997 (HSM-1)): 0.39 µg/mL (≈ 1.5 µM) | MIC (E. coli B cef. R): 0.78 µg/mL (≈ 3.01 µM) | MIC [6]: 0.39 µg/mL (≈ 1.5 µM) | MIC [7]: 0.19 µg/mL (≈ 0.733 µM) | MIC [8]: 0.39 µg/mL (≈ 1.5 µM) | MIC [9]: 0.39 µg/mL (≈ 1.5 µM) | MIC [10]: 0.39 µg/mL (≈ 1.5 µM) | MIC (E. cloacae P99 cef. R.): 0.39 µg/mL (≈ 1.5 µM) | MIC (E. aerogenes F46): 0.78 µg/mL (≈ 3.01 µM) | MIC (E. aerogenes 225): 0.78 µg/mL (≈ 3.01 µM) | MIC [11]: 0.39 µg/mL (≈ 1.5 µM) | MIC (C. freundii 4051 cef. R): 6.25 µg/mL (≈ 24.1 µM) | MIC [12]: 6.25 µg/mL (≈ 24.1 µM) | MIC [13]: 1.56 µg/mL (≈ 6.02 µM) | MIC (A. calcolaceticus N 409): 6.25 µg/mL (≈ 24.1 µM) | MIC [14]: 0.78 µg/mL (≈ 3.01 µM) | MIC (P. rettgeri ATCC 925): 1.56 µg/mL (≈ 6.02 µM) | MIC (P. morganii ATCC 25830): 1.56 µg/mL (≈ 6.02 µM) | MIC (P. vulgaris 51): 0.39 µg/mL (≈ 1.5 µM) | MIC [15]: 3.12 µg/mL (≈ 12 µM) | MIC [16]: > 25 µg/mL | MIC (P. aeruginosa ATCC 19660): > 25 µg/mL | ED50 [17]: 0.21 mg/kg | ED50 (Escherichia coli G; sc, subcutaneous administration): 6.7 mg/kg | efficacy in the control and treatment of experimental infections [18]: excellent efficacy
